Measurements from US12551576B2, “Chemiluminescent probes” (The General Hospital Corporation, priority 2020, dated 2026).

Key:
[1] = Fluorescence and chemiluminescence spectral studies; assay type: physicochemical
Procedure: Materials and Methods: reagents used for the synthesis were purchased from Sigma-Aldrich and used without further purification. Column chromatography was performed on a glass column slurry-packed with silica gel (60 Å, […]; SiliCycle Inc.). Recombinant Aβ peptide (1-40/42) were purchased from rPeptide (A-1163-1). Aβ aggregates for in vitro studies were generated by slow stirring of Aβ40 in PBS buffer for 3 days at room temperature. ^1H and ^13C NMR spectra were recorded at 500 MHz and 125 MHz on Bruker spectrometers in CDCl3, CD3OD or DMSO-d6 solutions at room temperature with tetramethylsilane (TMS, δ=0) as an internal standard. Liquid chromatography-mass spectrometry (LC-MS) was performed using an Agilent 1200 Series apparatus with an LC/MSD trap and Daly conversion dynode detector with UV detection at 254 nm. Fluorescence measurements were carried out using an F-7100 fluorescence spectrophotometer (Hitachi). Transgenic female 5×FAD mice and age-matched wild-type female mice were purchased from Jackson Laboratory. All animal experiments were approved by the Institutional Animal Use and Care Committee at Massachusetts General Hospital. The IVIS Spectrum animal imaging system (PerkinElmer) was used for in vitro and in vivo imaging.
Fluorescence spectral studies: Normally, all chemiluminescent molecules are fluorescent. The excitation and emission spectra of ADLumin-X were recorded and the emission peak of ADLumin-1 was around 590 nm (FIG. 1D) in DMSO, which is considerably longer than most of the commercially available chemiluminescence probes. The emission of ADLumin-2 is longer than that of ADLumin-1, due to its additional double-bond. (the emission peak of ADLumin-2 was 20 nm longer). […] Based on this fact, ADLumin-1 was used throughout this example, due to its high QY.
Chemiluminescence spectral studies: ADLumin-1 is stable in PBS buffer and organic solvents, including acetonitrile, dichloromethane and methanol. […] Without being bound by any theory, it is believed that the luminescence was due to the auto-oxidation of ADLumin-1. Although the mechanism of chemiluminescence of IPO derivatives has been studied, the mechanism of auto-oxidation has been rarely explored. In the course of the experiments, ADLumin-1 emitted very strong luminescence in pure DMSO (FIG. 2b). Unexpectedly, if the ADLumin-1 DMSO solution was stirred, even stronger luminescence can be detected (3.4-fold in FIG. 2b). Without being bound by any theory, it is believed that the luminescence was related to oxygen levels in DMSO. […] However, the increasing-fold decreased with cycles (FIG. 2c). […] Since no ROS were added into the DMSO solution, it is reasonable to infer that the auto-oxidation of ADLumin-1 was oxygen-level dependent. It is worthy to note that green fluorescent protein and luciferase/luciferin also dependent on oxygen for their proper imaging functions.

[2] = test system: misfoldons in serum; assay: ThT test of misfoldons in serum; parameters: species or system human; details: some misfoldons
Text: However, the detected difference was much smaller than that by ADLumin-1.

[3] = test system: PA-K2; assay: ThT fluorescence test with PA-K and PA-K2; assay type: binding
[4] = target: Aβ40 aggregates (Homo sapiens, UniProt P05067); assay: In vitro chemiluminescence study with Aβ aggregates in PBS; assay type: binding; details: pH 7.4
Chain of Aβ40 aggregates (P05067 672-711 limits assumed): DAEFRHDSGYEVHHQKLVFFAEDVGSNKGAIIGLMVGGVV

## Cc1nc2c[nH]c(/C=C/C=C/C=C/c3ccc(N(C)C)cc3)cn-2c1=O [ADLumin-2, 6-((1E,3E,5E)-6-(4-(dimethylamino)phenyl)hexa-1,3,5-trien-1-yl)-2-methylimidazo[1,2-a]pyrazin-3(7H)-one]
[1]
  quantum yield ratio ΦADLumin-1/ΦADLumin-2: 1.5
[1]; fluorescence, DMSO
  emission peak longer than that of ADLumin-1: 20 nm

## Cc1ccc2c(c1)sc(-c1ccc(N(C)C)cc1)[n+]2C.[Cl-] [ThT, Thioflavin T]
[2]
  ThT signal for misfoldons in serum: slightly higher signal
[3]
  difference lower than the difference provided by ADLumin-1: 11.8 fold
[3]; ThT 0.01 mg/ml
  fluorescence difference between PA-K and PA-K2: about 4.01 fold
[3]; fluorescence
  peptide concentration at which the difference PA-K vs PA-K2 is detected: 0.1 mg/mL

## MCLA [reference compound]
[4]
  chemiluminescence signal with Aβs: significantly reduced signal

## firefly luciferin [reference compound]
[1]
  emission peak (FWHM comparison): 570 nm
  full width at half-maximum (FWHM): 83 nm
